The target of the experiment is T1, GCase (Homo sapiens, UniProt P04062).
T1 construct: endogenous in cells; host or cells: HeLa cells
T1 sequence (P04062 40-536): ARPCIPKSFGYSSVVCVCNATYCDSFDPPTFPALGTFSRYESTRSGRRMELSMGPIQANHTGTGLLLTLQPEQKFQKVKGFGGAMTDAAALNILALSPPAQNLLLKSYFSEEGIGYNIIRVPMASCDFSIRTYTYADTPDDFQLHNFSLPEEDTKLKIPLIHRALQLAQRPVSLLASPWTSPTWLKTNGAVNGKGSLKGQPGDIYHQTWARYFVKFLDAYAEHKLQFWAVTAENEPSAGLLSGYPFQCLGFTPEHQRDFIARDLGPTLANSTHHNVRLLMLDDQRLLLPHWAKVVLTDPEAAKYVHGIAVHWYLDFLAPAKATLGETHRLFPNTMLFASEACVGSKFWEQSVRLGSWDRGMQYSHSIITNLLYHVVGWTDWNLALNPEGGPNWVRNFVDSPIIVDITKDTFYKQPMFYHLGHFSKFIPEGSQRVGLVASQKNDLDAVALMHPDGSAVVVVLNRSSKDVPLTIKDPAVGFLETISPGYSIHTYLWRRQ
The experiment can be described thus: activation of GCase in a live cell PFB assay in HELA cells. Type of experiment: cell-based. To be noted: activation of GCase, EC50 ranges. As for the experimental part:
Exemplary compounds were evaluated for activation of GCase in a live cell PFB assay in HELA cells (essentially as described in Ysselstein et al., “LRRK2 kinase activity regulates lysosomal glucocerebrosidase in neurons derived from Parkinson's disease patients” Nature Communications (2019) 10:5570). […] EC50 ranges: A: <10 μM; B: >10-50 μM; C: >50-100 μM; D: >100 μM.
Take `FC(F)Cn1ncc2ncc(N3CC4(CCN(c5cnccc5C(F)(F)F)CC4)C3)nc21` [Compound 128, 2-[1-(2,2-difluoroethyl)-1H-pyrazolo[3,4-b]pyrazin-6-yl]-7-[4-(trifluoromethyl)pyridin-3-yl]-2,7-diazaspiro[3.5]nonane]: the EC50 – broadly, the concentration that produces a half-maximal response – lay in the range of 10 to 50 µM. In the case of `FC(F)Cn1ncc2ncc(N3CC4(CCN(c5cccnc5C(F)(F)F)CC4)C3)nc21` [Compound 129, 2-[1-(2,2-difluoroethyl)-1H-pyrazolo[3,4-b]pyrazin-6-yl]-7-[2-(trifluoromethyl)pyridin-3-yl]-2,7-diazaspiro[3.5]nonane], the EC50 lay within 10 to 50 µM.

As to `FC(F)Cn1ncc2ncc(NC3CCC4(CC3)CN(c3cccc(C(F)(F)F)n3)C4)nc21` [Compound 130, N-[1-(2,2-difluoroethyl)-1H-pyrazolo[3,4-b]pyrazin-6-yl]-2-[6-(trifluoromethyl)pyridin-2-yl]-2-azaspiro[3.5]nonan-7-amine], the EC50 fell in the range of 10 to 50 µM. The same measure for `FC(F)Cn1ncc2ncc(N3CC4(CC(COc5cccnc5C(F)(F)F)C4)C3)nc21` [Compound 131, 2-[1-(2,2-difluoroethyl)-1H-pyrazolo[3,4-b]pyrazin-6-yl]-6-({[2-(trifluoromethyl)pyridin-3-yl]oxy}methyl)-2-azaspiro[3.3]heptane]: less than 10 µM. As to `FC(F)Cn1ncc2ncc(N3CC4(CC(COc5cc(C(F)(F)F)ccn5)C4)C3)nc21` [Compound 132, 2-[1-(2,2-difluoroethyl)-1H-pyrazolo[3,4-b]pyrazin-6-yl]-6-({[4-(trifluoromethyl)pyridin-2-yl]oxy}methyl)-2-azaspiro[3.3]heptane], the EC50 fell in the range of 10 to 50 µM. The same measure for `FC(F)Cn1ncc2ncc(N3CC4(CC(COc5ccc(C(F)(F)F)nc5)C4)C3)nc21` [Compound 133, 2-[1-(2,2-difluoroethyl)-1H-pyrazolo[3,4-b]pyrazin-6-yl]-6-({[6-(trifluoromethyl)pyridin-3-yl]oxy}methyl)-2-azaspiro[3.3]heptane]: less than 10 µM; for `FC(F)Cn1ncc2ncc(N3CC4(CC(COc5cccc(C(F)(F)F)n5)C4)C3)nc21` [Compound 134, 2-[1-(2,2-difluoroethyl)-1H-pyrazolo[3,4-b]pyrazin-6-yl]-6-({[6-(trifluoromethyl)pyridin-2-yl]oxy}methyl)-2-azaspiro[3.3]heptane]: less than 10 µM. For `O=C1N(c2cccnc2C(F)(F)F)CCC12CCN(c1cnc3cnn(CC(F)F)c3n1)CC2` [Compound 135, 8-[1-(2,2-difluoroethyl)-1H-pyrazolo[3,4-b]pyrazin-6-yl]-2-[2-(trifluoromethyl)pyridin-3-yl]-2,8-diazaspiro[4.5]decan-1-one] the value was 50 to 100 µM; for `FC(F)(F)Cn1ncc2ncc(N3CC4(CCCN(c5ccc(C(F)(F)F)nc5)C4)C3)nc21` [Compound 136, 2-[1-(2,2,2-trifluoroethyl)-1H-pyrazolo[3,4-b]pyrazin-6-yl]-6-[6-(trifluoromethyl)pyridin-3-yl]-2,6-diazaspiro[3.5]nonane], 10 to 50 µM; for `Cc1nn(CC(F)F)c2nc(N3CC4(CCCN(c5ccc(C(F)(F)F)nc5)C4)C3)cnc12` [Compound 137, 2-[1-(2,2-difluoroethyl)-3-methyl-1H-pyrazolo[3,4-b]pyrazin-6-yl]-6-[6-(trifluoromethyl)pyridin-3-yl]-2,6-diazaspiro[3.5]nonane], more than 100 µM. For `FC(F)(F)c1ccc(N2CCCC3(C2)CN(c2cncc(-c4nncs4)n2)C3)cn1` [Compound 138, 2-[6-(1,3,4-thiadiazol-2-yl)pyrazin-2-yl]-6-[6-(trifluoromethyl)pyridin-3-yl]-2,6-diazaspiro[3.5]nonane] the value was 10 to 50 µM. The compound `FC(F)(F)Cn1ncc2ncc(N3CCC4(CCN(c5cc(C(F)(F)F)ccn5)CC4)C3)nc21` [Compound 139, 2-[1-(2,2,2-trifluoroethyl)-1H-pyrazolo[3,4-b]pyrazin-6-yl]-8-[4-(trifluoromethyl)pyridin-2-yl]-2,8-diazaspiro[4.5]decane] registered an EC50 of 10 to 50 µM. For `Cc1nn(CC(F)F)c2nc(N3CCC4(CCN(c5cc(C(F)(F)F)ccn5)CC4)C3)cnc12` [Compound 140, 2-[1-(2,2-difluoroethyl)-3-methyl-1H-pyrazolo[3,4-b]pyrazin-6-yl]-8-[4-(trifluoromethyl)pyridin-2-yl]-2,8-diazaspiro[4.5]decane] the value was 10 to 50 µM; for `FC(F)(F)c1ccnc(N2CCC3(CC2)CCN(c2cncc(-c4nncs4)n2)C3)c1` [Compound 141, 2-[6-(1,3,4-thiadiazol-2-yl)pyrazin-2-yl]-8-[4-(trifluoromethyl)pyridin-2-yl]-2,8-diazaspiro[4.5]decane], 10 to 50 µM; for `O=C1N(c2cc(C(F)(F)F)ccn2)CCC12CCN(c1cnc3cnn(CC(F)(F)F)c3n1)CC2` [Compound 142, 8-[1-(2,2,2-trifluoroethyl)-1H-pyrazolo[3,4-b]pyrazin-6-yl]-2-[4-(trifluoromethyl)pyridin-2-yl]-2,8-diazaspiro[4.5]decan-1-one], less than 10 µM.

On to `FC(F)Cn1ncc2ncc(N3CCC4(CCN(c5cccc(C(F)(F)F)n5)C4)CC3)nc21` [Compound 143, 8-[1-(2,2-difluoroethyl)-1H-pyrazolo[3,4-b]pyrazin-6-yl]-2-[6-(trifluoromethyl)pyridin-2-yl]-2,8-diazaspiro[4.5]decane], for which the EC50 is less than 10 µM. For `FC(F)Cn1ncc2ncc(N3CCC4(CCN(c5ccc(C(F)(F)F)cn5)C4)CC3)nc21` [Compound 144, 8-[1-(2,2-difluoroethyl)-1H-pyrazolo[3,4-b]pyrazin-6-yl]-2-[5-(trifluoromethyl)pyridin-2-yl]-2,8-diazaspiro[4.5]decane] the value was less than 10 µM; for `FC(F)Cn1ncc2ncc(N3CCC4(CC3)CCN(c3ncccc3C(F)(F)F)C4)nc21` [Compound 145, 8-[1-(2,2-difluoroethyl)-1H-pyrazolo[3,4-b]pyrazin-6-yl]-2-[3-(trifluoromethyl)pyridin-2-yl]-2,8-diazaspiro[4.5]decane], 10 to 50 µM. As to `FC(F)Cn1ncc2ncc(N3CCC4(CC3)CCN(c3cccnc3C(F)(F)F)C4)nc21` [Compound 146, 8-[1-(2,2-difluoroethyl)-1H-pyrazolo[3,4-b]pyrazin-6-yl]-2-[2-(trifluoromethyl)pyridin-3-yl]-2,8-diazaspiro[4.5]decane], the EC50 is less than 10 µM. The compound `FC(F)Cn1ncc2ncc(N3CCC4(CCN(c5ccc(C(F)(F)F)nc5)C4)CC3)nc21` [Compound 147, 8-[1-(2,2-difluoroethyl)-1H-pyrazolo[3,4-b]pyrazin-6-yl]-2-[6-(trifluoromethyl)pyridin-3-yl]-2,8-diazaspiro[4.5]decane] gave an EC50 of less than 10 µM.

For `FC(F)Cn1ncc2ncc(N3CCC4(CCN(c5cncc(C(F)(F)F)c5)C4)CC3)nc21` [Compound 148, 8-[1-(2,2-difluoroethyl)-1H-pyrazolo[3,4-b]pyrazin-6-yl]-2-[5-(trifluoromethyl)pyridin-3-yl]-2,8-diazaspiro[4.5]decane], the EC50 is less than 10 µM.

On to `FC(F)Cn1ncc2ncc(N3CCC4(CCN(c5cccc(C(F)(F)F)n5)CC4)C3)nc21` [Compound 149, 2-[1-(2,2-difluoroethyl)-1H-pyrazolo[3,4-b]pyrazin-6-yl]-8-[6-(trifluoromethyl)pyridin-2-yl]-2,8-diazaspiro[4.5]decane], for which the EC50 was less than 10 µM. For `FC(F)Cn1ncc2ncc(N3CCC4(CCN(c5ccc(C(F)(F)F)cn5)CC4)C3)nc21` [Compound 150, 2-[1-(2,2-difluoroethyl)-1H-pyrazolo[3,4-b]pyrazin-6-yl]-8-[5-(trifluoromethyl)pyridin-2-yl]-2,8-diazaspiro[4.5]decane] the value was 10 to 50 µM. The same measure for `FC(F)Cn1ncc2ncc(N3CCC4(CCN(c5ncccc5C(F)(F)F)CC4)C3)nc21` [Compound 151, 2-[1-(2,2-difluoroethyl)-1H-pyrazolo[3,4-b]pyrazin-6-yl]-8-[3-(trifluoromethyl)pyridin-2-yl]-2,8-diazaspiro[4.5]decane]: 10 to 50 µM. In turn, `FC(F)Cn1ncc2ncc(N3CCC4(CCN(c5ccc(C(F)(F)F)nc5)CC4)C3)nc21` [Compound 152, 2-[1-(2,2-difluoroethyl)-1H-pyrazolo[3,4-b]pyrazin-6-yl]-8-[6-(trifluoromethyl)pyridin-3-yl]-2,8-diazaspiro[4.5]decane] returned an EC50 of less than 10 µM. On to `FC(F)Cn1ncc2ncc(N3CCC4(CCN(c5cncc(C(F)(F)F)c5)CC4)C3)nc21` [Compound 153, 2-[1-(2,2-difluoroethyl)-1H-pyrazolo[3,4-b]pyrazin-6-yl]-8-[5-(trifluoromethyl)pyridin-3-yl]-2,8-diazaspiro[4.5]decane], for which the EC50 is less than 10 µM. The same measure for `FC(F)Cn1ncc2ncc(N3CCC4(CCN(c5ccnc(C(F)(F)F)c5)C4)CC3)nc21` [Compound 154, 8-[1-(2,2-difluoroethyl)-1H-pyrazolo[3,4-b]pyrazin-6-yl]-2-[2-(trifluoromethyl)pyridin-4-yl]-2,8-diazaspiro[4.5]decane]: less than 10 µM; for `FC(F)Cn1ncc2ncc(N3CCC4(CCN(c5ccnc(C(F)(F)F)c5)CC4)C3)nc21` [Compound 155, 2-[1-(2,2-difluoroethyl)-1H-pyrazolo[3,4-b]pyrazin-6-yl]-8-[2-(trifluoromethyl)pyridin-4-yl]-2,8-diazaspiro[4.5]decane]: less than 10 µM.

For the origin of these results see patent US20250034170A1, “SMALL MOLECULE MODULATORS OF GLUCOCEREBROSIDASE ACTIVITY AND USES THEREOF” (Vanqua Bio, Inc., priority 2021, published 2025).
